Values after ≈ are worked out from the molar mass of the structure shown. Read-outs that look alike come from different tables or passages of the source.
What was measured:
[1] = tested on: spore formation by C. difficile ATCC 630; assay: Spore formation inhibition; type: cell-based, Clostridioides difficile; settings: 0.5× MIC, 12 hours, compared to negative control (no treatment); for log reduction in the spore count: triplicate
Method: After the incubation period, the total bacterial count for each treatment group was determined by serial dilution and plating on BHIS agar plates supplemented with 0.1% taurocholic acid. To determine the presence of spores, the remaining bacterial culture from each treatment group was heated at 65°C for 30 minutes to ensure all vegetative cells were killed. The bacterial culture from each treatment group was then serially diluted and plated on BHIS agar plates supplemented with 0.1% taurocholic acid. The plates were incubated overnight, and the CFU counts for each treatment group were determined the following day.

[2] = tested on: C. difficile ATCC BAA 1870; assay: MIC/MBC broth microdilution, C. difficile ATCC BAA 1870; type: cell-based, Clostridioides difficile; settings: for MIC: broth microdilution, anaerobic 48 hours 37°C, visual, read-out: MIC; for MBC: plated on BHIS agar, read-out: MBC
Method: The susceptibility of C. difficile isolates to the CPP-PNA conjugates or to the CPP alone was determined in vitro as described before with slight modifications ([43] [–] [45]). Briefly, the CPP-PNA conjugates, the CPP alone, and the antibiotics vancomycin and fidaxomicin were added in triplicate to the first row of ultra-low adhesion 96-well plates (Corning Inc., Corning, NY). A suspension of C. difficile equivalent to 0.5 McFarland solution was added to Mueller-Hilton II broth, which was then added to the ultra-low adhesion plate and then serially diluted. The plates were incubated anaerobically for 48 hours at 37°C. The minimum inhibitory concentration was defined as the lowest concentration of the CPP-PNA conjugate that could inhibit bacterial growth when observed visually.
The MIC and MBC experiments were repeated twice.

[3] = tested on: gut microflora strains (Lactobacillus sp., Bacteroides sp., and Bifidobacterium sp.); assay: Growth inhibition of representative gut microflora strains (summary); type: cell-based; settings: broth microdilution, 48 hours
Method: The susceptibility of gut microflora strains to the rpoA-TAT conjugate was determined using the broth microdilution assay, as described above. Briefly, bacterial suspensions of Bifidobacterium sp. and Bacteroides sp., in supplemented BHIS broth, and Lactobacilli strains, in MRS broth, were added to ultra-low adhesion 96-well plates and serially diluted. The MIC was recorded after 48 hours.

[4] = tested on: spoOA gene of C. difficile ATCC 630; assay: RT-PCR spoOA gene expression; type: cell-based; settings: 12 hours, qPCR
Method: (§1) The antisense effect of the rpoA-TAT conjugate was evaluated using a real-time quantitative reverse-transcriptase polymerase chain reaction (RT-PCR) assay ([11], [12]). Briefly, an overnight culture of C. difficile ATCC 630 was diluted in fresh Mueller-Hilton broth II and added in triplicate to low-adhesion microcentrifuge tubes. […] The tubes were incubated anaerobically at 37°C for 12 hours following which the bacterial pellet in each treatment group was collected by centrifugation at 10,000 × g for 10 minutes. Bacteria were subsequently lysed with recombinant lysostaphin (100 µg/mL) in Tris-EDTA (TE) buffer (1 mol/L Tris, 0.5 mol/L ethylenediaminetetraacetate pH 8, nuclease-free H20), and total RNA was extracted using the TRIzol Max Bacterial Isolation Kit as per the manufacturer’s instructions. Turbo DNAse was used to remove genomic DNA contamination from each sample as per the protocol. cDNA was synthesized using the SuperScript III First-Strand Synthesis Kit as per the manufacturer’s instructions. The relative quantification of cDNA for each treatment group was determined using the iTaq Universal SYBR Green One-Step Kit and CFX96 Real-Time PCR Detection System per the manufacturer’s instructions.
(§2) The constitutively expressed tpi gene was used as an internal control. Real-time RT-PCR results were analyzed using the 2^-ΔΔCT method.

[5] = tested on: toxin B (tcdB) gene of C. difficile ATCC 630; assay: RT-PCR toxin B (tcdB) gene expression; type: cell-based, Clostridioides difficile; settings: 12 hours, qPCR
Method: as §1, §2

[6] = tested on: toxin A (tcdA) gene of C. difficile ATCC 630; assay: RT-PCR toxin A (tcdA) gene expression; type: cell-based, Clostridioides difficile; settings: 12 hours, qPCR
Method: as §1, §2

[7] = tested on: rpoA gene (RNA polymerase α subunit) of C. difficile ATCC 630; assay: RT-PCR rpoA gene expression; type: cell-based, Clostridioides difficile; settings: 12 hours, qPCR
Method: as §1, §2

[8] = Clostridioides difficile, BAA1870

Compound | reduction in the spore count [1] [%] | log reduction in the spore count [1] [log] | MIC [2, 8] [µM] | MBC [2, 8] [µM] | concentration without growth inhibition of gut microflora strains [3] [µM] | reduction of spoOA gene expression ([4]; 0.125× MIC (1 µM)) [%] | reduction of spoOA gene expression ([4]; 0.25× MIC (2 µM)) [%] | reduction of spoOA gene expression ([4]; 0.5× MIC (4 µM)) [%] | reduction of toxin B (tcdB) gene expression ([5]; 0.125× MIC (1 µM)) [%] | reduction of toxin B (tcdB) gene expression ([5]; 0.25× MIC (2 µM)) [%] | reduction of toxin B (tcdB) gene expression ([5]; 0.5× MIC (4 µM)) [%] | MIC [2] [µM] | MBC [2] [µM] | reduction of toxin A (tcdA) gene expression ([6]; 0.125× MIC (1 µM)) [%] | reduction of toxin A (tcdA) gene expression ([6]; 0.25× MIC (2 µM)) [%] | reduction of toxin A (tcdA) gene expression ([6]; 0.5× MIC (4 µM)) [%] | reduction of rpoA gene expression ([7]; 0.125× MIC (1 µM), tpi internal control) [%] | reduction of rpoA gene expression ([7]; 0.25× MIC (2 µM)) [%] | reduction of rpoA gene expression ([7]; 0.5× MIC (4 µM)) [%]
CCc1c(Cl)c(O)c(Cl)c(O)c1C(=O)O[C@H]1[C@H](O)[C@H](OC)[C@H](OC/C2=C\C=C\C[C@H](O)/C(C)=C/[C@H](CC)[C@@H](O[C@@H]3OC(C)(C)[C@@H](OC(=O)C(C)C)[C@H](O)[C@@H]3O)/C(C)=C/C(C)=C/C[C@@H]([C@@H](C)O)OC2=O)O[C@@H]1C [Fidaxomicin, fidaxomicin] | 99.9 | 3.44 | 1 (≈ 1.06 µg/mL) | 1 (≈ 1.06 µg/mL) | – | – | – | – | – | – | – | – | – | – | – | – | – | – | –
GRKKKRRQRRRYK-O-CATGGACAAAAC-NH2 [rpoA-TAT, PNA oligomer antisense to C. difficile rpoA covalently conjugated to the TAT cell penetrating peptide] | 99.9 | 3.44 | – | – | > 32 | 45.2 | 58.4 | 68.5 | 26 | 51.2 | 74.5 | 8 | 8 | 41.3 | 50.7 | 71.2 | 34 | 46.3 | 78.2

Source: PMC10581251, “Antisense inhibition of RNA polymerase α subunit of Clostridioides difficile” (Microbiology Spectrum, 2023)
